≈ marks a conversion by molar mass, not a printed value.
Key:
[1] = physchem; conditions: kinetic from dmso stock
Outline: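 DMSO doubling dilutions were diluted twenty-fold into 100 mM citrate (pH 4), PBS (pH 7.4) or carbonate-bicarbonate (pH 9). After 24 h equilibration at room temperature, absorbance was read at 620 nm. The reported value is the highest concentration without measurable precipitate.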

[2] = tested on: Haemophilus influenzae (Isolate ID ATCC 49247); assay: Antibacterial activity, MIC, H. influenzae; type: cell-based; conditions: Haemophilus influenzae, ATCC49247; Gram negative strain; broth microdilution or agar dilution
Outline: (§1)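 Broth microdilution or agar dilution per CLSI M7-A7; MIC read as susceptibility endpoint in liquid or solid medium.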

[3] = tested on: Streptococcus pyogenes (Isolate ID ATCC 51339); assay: Antibacterial activity, MIC, S. pyogenes; type: cell-based; conditions: Streptococcus pyogenes, ATCC51339, Gram positive strain; broth microdilution or agar dilution
Outline: as §1

[4] = tested on: Staphylococcus aureus (Isolate ID ATCC 29213); assay: Antibacterial activity, MIC, S. aureus; type: cell-based; conditions: Staphylococcus aureus, ATCC29213, Gram positive strain; broth microdilution or agar dilution
Outline: as §1

[5] = tested on: Enterococcus faecalis (Isolate ID ATCC 29212); assay: Antibacterial activity, MIC, E. faecalis; type: cell-based; conditions: Enterococcus faecalis, ATCC29212; Gram positive strain; broth microdilution or agar dilution
Outline: as §1

[6] = pH 7.4, aqueous buffer, Max Solubility
[7] = pH 7.4, aqueous buffer, Solubility (pH 7.4)
[8] = pH 7.4, aqueous buffer, Solubility Range
[9] = pH 7.4, aqueous buffer, Solubility Range (maximum solubility)
[10] = pH 9, aqueous buffer, Max Solubility
[11] = pH 9, aqueous buffer, Solubility Range (maximum solubility)

Compound	solubility at 24 h [1, 6] [µg/mL]	solubility at 24 h [1, 7] [µg/mL]	solubility at 24 h [1, 8] [µg/mL]	solubility at 24 h [1, 9] [µg/mL]	MIC [2] [µg/mL]	MIC [3] [µg/mL]	MIC [4] [µg/mL]	MIC [5] [µg/mL]	solubility at 24 h [1, 10] [µg/mL]	solubility at 24 h [1, 11] [µg/mL]	solubility at 24 h ([1]; pH 4, aqueous buffer, Max Solubility) [µg/mL]	solubility at 24 h ([1]; pH 4, aqueous buffer, Solubility Range (maximum solubility)) [µg/mL]
CCNC(=O)Nc1nc2cc(-c3cnc(N4CCC(C)(C(=O)O)CC4)nc3)cc(-c3cnc(N4CCOCC4)s3)c2s1 [Compound 76]	≥ 800	≥ 800	> 800	> 800	> 16	0.25 to 1 (≈ 0.411 to 1.64 µM)	1 to 16 (≈ 1.64 to 26.3 µM)	≤ 0.25				
CCNC(=O)Nc1nc2cc(-c3cnc(N4CCC(C)(C(=O)O)CC4)nc3)cc(-c3cnc(CC)s3)c2s1 [Compound 77]		200 (≈ 363 µM)	12.5 to 400 (≈ 22.7 to 725 µM)		1 to 16 (≈ 1.81 to 29 µM)	≤ 0.25	≤ 0.25	≤ 0.25	400 (≈ 725 µM)	400 to 800 (≈ 725 to 1450 µM)		
CCNC(=O)Nc1nc2cc(-c3cnc(N4CCC(C)(C(=O)O)CC4)nc3)cc(-c3cnc(OCC)s3)c2s1 [Compound 78]		400 (≈ 705 µM)	400 to 800 (≈ 705 to 1410 µM)		> 16	0.25 to 1 (≈ 0.44 to 1.76 µM)	0.25 to 1 (≈ 0.44 to 1.76 µM)	≤ 0.25	≥ 800	> 800		
CCNC(=O)Nc1nc2cc(-c3cnc(N4CCC(C)(C(=O)O)CC4)nc3)cc(-c3ccn(C)c(=O)c3)c2s1 [Compound 79]	≥ 800	≥ 800	> 800	> 800	> 16	1 to 16 (≈ 1.83 to 29.2 µM)	> 16	1 to 16 (≈ 1.83 to 29.2 µM)				
CCNC(=O)Nc1nc2cc(-c3cnc(N4CCC(C)(C(=O)O)CC4)nc3)cc(-c3cc(=O)n(CCOC)cn3)c2s1 [Compound 80]	400 (≈ 675 µM)	400 (≈ 675 µM)	400 to 800 (≈ 675 to 1350 µM)	400 to 800 (≈ 675 to 1350 µM)	1 to 16 (≈ 1.69 to 27 µM)	1 to 16 (≈ 1.69 to 27 µM)	> 16	1 to 16 (≈ 1.69 to 27 µM)				
CCNC(=O)Nc1nc2cc(-c3cnc(N4CCC(C)(C(=O)O)CC4)nc3)cc(-c3cncc(OC)n3)c2s1 [Compound 81]		200 (≈ 365 µM)	12.5 to 400 (≈ 22.8 to 729 µM)		1 to 16 (≈ 1.82 to 29.2 µM)	≤ 0.25	≤ 0.25	≤ 0.25	400 (≈ 729 µM)	400 to 800 (≈ 729 to 1460 µM)		
CCNC(=O)Nc1nc2cc(-c3cnc(N4CCC(C)(C(=O)O)CC4)nc3)cc(-c3ccc(CC#N)cn3)c2s1 [Compound 82]		200 (≈ 359 µM)	12.5 to 400 (≈ 22.5 to 719 µM)		0.25 to 1 (≈ 0.449 to 1.8 µM)	≤ 0.25	≤ 0.25	≤ 0.25	≥ 800	> 800		
CCNC(=O)Nc1nc2cc(-c3cnc(N4CCC(C)(C(=O)O)CC4)nc3)cc(-c3cnc(CC)cn3)c2s1 [Compound 83]		200 (≈ 366 µM)	12.5 to 400 (≈ 22.9 to 732 µM)		0.25 to 1 (≈ 0.457 to 1.83 µM)	≤ 0.25	≤ 0.25	≤ 0.25	≥ 800	> 800		
CCNC(=O)Nc1nc2cc(-c3cnc(N4CCC(C)(C(=O)O)CC4)nc3)cc(-c3nccnc3C)c2s1 [Compound 84]		200 (≈ 375 µM)	12.5 to 400 (≈ 23.5 to 751 µM)		1 to 16 (≈ 1.88 to 30 µM)	0.25 to 1 (≈ 0.469 to 1.88 µM)	1 to 16 (≈ 1.88 to 30 µM)	≤ 0.25	≥ 800	> 800		
CCNC(=O)Nc1nc2cc(-c3cnc(N4CCC(C)(C(=O)O)CC4)nc3)cc(-c3cc(C)c(F)cn3)c2s1 [Compound 85]		200 (≈ 364 µM)	12.5 to 400 (≈ 22.7 to 728 µM)		0.25 to 1 (≈ 0.455 to 1.82 µM)	≤ 0.25	≤ 0.25	≤ 0.25	≥ 800	> 800		
CCNC(=O)Nc1nc2cc(-c3cnc(N4CCC(C)(C(=O)O)CC4)nc3)cc(-c3nccnc3OC)c2s1 [Compound 86]	≥ 800	≥ 800	> 800	> 800	1 to 16 (≈ 1.82 to 29.2 µM)	≤ 0.25	≤ 0.25	≤ 0.25				
CCNC(=O)Nc1nc2cc(-c3cnc(N4CCC(C)(C(=O)O)CC4)nc3)cc(C3CC3)c2s1 [Compound 87, 1-{5-[7-Cyclopropyl-2-(3-ethyl-ureido)-benzothiazol-5-yl]-pyrimidin-2-yl}-4-methyl-piperidine-4-carboxylic acid]	≥ 800	≥ 800	> 800	> 800	1 to 16 (≈ 2.08 to 33.3 µM)	0.25 to 1 (≈ 0.52 to 2.08 µM)	0.25 to 1 (≈ 0.52 to 2.08 µM)	≤ 0.25				
CCNC(=O)Nc1nc2cc(-c3cnc(N4CCC(C)(C(=O)O)CC4)nc3)cc(-c3ccncc3)c2s1 [Compound 89]	≥ 800	≥ 800	> 800	> 800	1 to 16 (≈ 1.93 to 30.9 µM)	0.25 to 1 (≈ 0.483 to 1.93 µM)	0.25 to 1 (≈ 0.483 to 1.93 µM)	≤ 0.25				
CCNC(=O)Nc1nc2cc(-c3cnc(N4CCC(C)(C(=O)O)CC4)nc3)cc(-c3nccc(OC)c3C#N)c2s1 [Compound 90]	100 (≈ 175 µM)	100 (≈ 175 µM)	12.5 to 400 (≈ 21.8 to 699 µM)	12.5 to 400 (≈ 21.8 to 699 µM)	0.25 to 1 (≈ 0.437 to 1.75 µM)	≤ 0.25	≤ 0.25	≤ 0.25				
CCNC(=O)Nc1nc2cc(-c3cnc(N4CCC(C)(C(=O)O)CC4)nc3)cc(C(=O)N(C)CC)c2s1 [Compound 91, 1-[5-[2-(ethylcarbamoylamino)-7-[ethyl(methyl)carbamoyl]-1,3-benzothiazol-5-yl]pyrimidin-2-yl]-4-methyl-piperidine-4-carboxylic acid]	≥ 800	≥ 800	> 800	> 800	> 16	> 16	> 16	1 to 16 (≈ 1.9 to 30.4 µM)				
CCNC(=O)Nc1nc2cc(-c3cnc(N4CCC(C)(C(=O)O)CC4)nc3)cc(-c3cc(C)c(C#N)cn3)c2s1 [Compound 92]		6.25 (≈ 11.2 µM)	< 12.5		0.25 to 1 (≈ 0.449 to 1.8 µM)	≤ 0.25	≤ 0.25	≤ 0.25			12.5 (≈ 22.5 µM)	12.5 to 400 (≈ 22.5 to 719 µM)
CCNC(=O)Nc1nc2cc(-c3cnc(N4CCC(CC)(C(=O)O)CC4)nc3)cc(-c3cnccn3)c2s1 [Compound 99]		≥ 800	> 800		1 to 16 (≈ 1.88 to 30 µM)	≤ 0.25	≤ 0.25	≤ 0.25				
CCNC(=O)Nc1nc2cc(-c3cnc(N4CCC(CC)(C(=O)O)CC4)nc3)cc(-c3cc(C#N)ccn3)c2s1 [Compound 100]		12.5 (≈ 22.5 µM)	12.5 to 400 (≈ 22.5 to 719 µM)		1 to 16 (≈ 1.8 to 28.7 µM)	≤ 0.25	≤ 0.25	≤ 0.25				
CCNC(=O)Nc1nc2cc(-c3cnc(N4CCC(CC)(C(=O)O)CC4)nc3)cc(-c3nccc(C)n3)c2s1 [Compound 101]		≥ 800	> 800		1 to 16 (≈ 1.83 to 29.3 µM)	≤ 0.25	≤ 0.25	≤ 0.25				
CCNC(=O)Nc1nc2cc(-c3cnc(N4CCC(CC)(C(=O)O)CC4)nc3)cc(-c3cc(OC)ccn3)c2s1 [Compound 102]		≥ 800	> 800		1 to 16 (≈ 1.78 to 28.5 µM)	≤ 0.25	≤ 0.25	≤ 0.25				

From patent US9181234B2, “Antibacterial compounds” (priority 2010, dated 2015)
